Laboratory results published in US20060051352A1, “CEA binding agents and compositions to reverse CEA-mediated tumorigenic effects on human cancer cells, restore sensitivity to drug induced apoptosis and uses thereof” (priority 2004, published 2006).
Bridge positions count the residues as written; N and C are the ends.

T1: human carcinoembryonic antigen (CEA), wild type (human, UniProt P06731 35-685, glycophosphatidyl inositol (GPI) membrane anchor)
T1 sequence (looked up): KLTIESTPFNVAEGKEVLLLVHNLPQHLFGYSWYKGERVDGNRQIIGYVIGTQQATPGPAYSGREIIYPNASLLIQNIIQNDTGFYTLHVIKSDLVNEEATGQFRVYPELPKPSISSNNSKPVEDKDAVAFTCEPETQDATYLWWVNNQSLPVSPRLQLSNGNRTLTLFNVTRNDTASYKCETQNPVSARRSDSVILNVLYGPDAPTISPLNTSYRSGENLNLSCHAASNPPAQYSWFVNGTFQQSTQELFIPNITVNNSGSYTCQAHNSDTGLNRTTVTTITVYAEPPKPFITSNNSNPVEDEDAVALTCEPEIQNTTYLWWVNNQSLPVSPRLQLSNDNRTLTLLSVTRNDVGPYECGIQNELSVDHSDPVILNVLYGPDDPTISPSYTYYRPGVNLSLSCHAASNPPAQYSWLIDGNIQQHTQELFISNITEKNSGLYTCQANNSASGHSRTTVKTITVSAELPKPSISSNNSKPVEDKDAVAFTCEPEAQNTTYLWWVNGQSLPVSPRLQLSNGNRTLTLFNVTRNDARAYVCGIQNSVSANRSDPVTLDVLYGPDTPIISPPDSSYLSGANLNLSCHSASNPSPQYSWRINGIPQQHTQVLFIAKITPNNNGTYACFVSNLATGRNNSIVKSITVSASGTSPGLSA

B1: cyclized peptide H-CGNRQIIC-OH (subdomain 2) (peptide)
peptide: H-CGNRQIIC-OH
modifications: disulfide 1-8
SMILES: CC[C@H](C)[C@@H]1NC(=O)[C@H](CCC(N)=O)NC(=O)[C@H](CCCNC(=N)N)NC(=O)[C@H](CC(N)=O)NC(=O)CNC(=O)[C@@H](N)CSSC[C@@H](C(=O)O)NC(=O)[C@H]([C@@H](C)CC)NC1=O
B2: cyclized peptide H-CGYSWYKC-OH (subdomain 1) (peptide)
peptide: H-CGYSWYKC-OH
modifications: disulfide 1-8
SMILES: NCCCC[C@@H]1NC(=O)[C@H](Cc2ccc(O)cc2)NC(=O)[C@H](Cc2c[nH]c3ccccc23)NC(=O)[C@H](CO)NC(=O)[C@H](Cc2ccc(O)cc2)NC(=O)CNC(=O)[C@@H](N)CSSC[C@@H](C(=O)O)NC1=O
B3: cyclized peptide H-CQNDTGC-OH (subdomain 3) (peptide)
peptide: H-CQNDTGC-OH
modifications: disulfide 1-7
SMILES: C[C@@H](O)[C@@H]1NC(=O)[C@H](CC(=O)O)NC(=O)[C@H](CC(N)=O)NC(=O)[C@H](CCC(N)=O)NC(=O)[C@@H](N)CSSC[C@@H](C(=O)O)NC(=O)CNC1=O

What was measured:
[1] = tested on: human colorectal carcinoma cell lines, SW-1222 and LS-180; conditions: A20 Fab 100 μg/ml ex vivo, 0.5 mg/dose iv daily day 3-8; taxol 5 nM ex vivo, 5 mg/kg ip day 4; analysis day 9
Procedure: The efficacy was investigated by a treatment protocol in which the ability of the treated cells to conform to normal colonic tissue architecture and to fail to form tumors, was assessed.
Several experiments were conducted in which the effect on two human colorectal carcinoma cell lines (test cells), when mixed in a defined proportion with normal fetal rat colonic cells and grown as aggregates implanted under the kidney capsule of nude mice, of taxol alone, taxol in combination with irrelevant isotype matched control P3X Fabs, and taxol in combination with A20 Fabs, was compared. The test cells in the “mini-colons” that developed after 7-10 days were assessed for either conformance to normal crypt-like tissue architecture or for formation of tumors (43).
With this in mind, the treatment regimen employed subjecting the test cells to the maximum possible dose over the course of the assay. This regimen included three administrations of A20 Fabs to the test cells in the ex vivo portion of the assay (pre-treatment, during which the aggregates are constructed), followed by daily intravenous injections during the in vivo growth of the implanted aggregates (therapeutic treatment). Pre-treatment of the test cells with A20 Fabs at 100 μg/ml commenced on day 0. […]

[2] = tested on: human colorectal carcinoma cells; assay: Lung metastases of human colorectal carcinoma cells in nude mice; format: in vivo; conditions: after 30 days; PEG-A20Fab 200 μg iv, Taxol 5 mg/kg ip every 6 days; versus untreated animals
Procedure: Mice were inoculated by intravenous injection of human colorectal carcinoma cells on day 0. Treatment was initiated either immediately following inoculation or 12 hours thereafter. PEGylated A20 Fab fragments (PEG-A20Fab) were administered intravenously (200 μg or 7-8 mg/kg) every day for the first 2 days followed by every 3 days thereafter. Taxol was administered at 5 mg/kg every 6 days (ip). After 30 days, the number of lung surface colonies, representing metastases, were counted.

[3] = tested on: CEA-mediated intercellular adhesion; conditions: from references (16), (29); cited from earlier work
[4] = target: T1, human carcinoembryonic antigen (CEA), …; assay: cell-based or functional assay

| Molecule | release of CEA-imposed myogenic differentiation block, % fusion of L6 (CEA) cells at 100 µM peptide [4] | other results |
| --- | --- | --- |
| CC(=O)O[C@H]1C(=O)[C@@]2(C)[C@H]([C@H](OC(=O)c3ccccc3)[C@]3(O)C[C@H](OC(=O)[C@H](O)[C@@H](NC(=O)c4ccccc4)c4ccccc4)C(C)=C1C3(C)C)[C@]1(OC(C)=O)CO[C@@H]1C[C@@H]2O [Taxol, Paclitaxel] |  | tumor growth in mini-colons [1]: much larger, more solid and less differentiated; number of lung surface colonies [2]: no effect |
| H-CQNDTGC-OH (disulfide 1-7; also: synthetic cyclic peptide) [cyclized peptide representing subdomain 3 of the CEA N domain] |  | inhibition of CEA-mediated intercellular adhesion [3]: effective in inhibiting CEA-mediated intercellular adhesion |
| B1 | 28 % fusion |  |
| B2 | 18 % fusion |  |
| B3 | 36 % fusion |  |
